Values joined by “and” are separate entries in the source; they are usually repeats but may differ in a detail not shown here. Equal entries are not always repeated. Inconclusive results and toxic doses are left out.
Test system: P388 leukemia ip, CD2F1 mice, survival T/C
Test: NCI In Vivo Anticancer Drug Screen. Data for tumor model P388 Leukemia (intraperitoneal) in CD2F1 (CDF1) mice
Conditions: endpoint: median survival time, higher = longer survival
Method in brief: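 Mice carrying the transplanted tumor received test compound or vehicle. Survival was recorded in each group, and the value is the treated-group measurement divided by that of the vehicle-treated control group.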

[1] = dose: 100.0 mg/kg/injection, schedule: Q04DX003 (ip), vehicle: Klucel (hydroxypropylcellulose) (HPC)
[2] = dose: 200.0 mg/kg/injection, schedule: Q04DX003 (ip), vehicle: Klucel (hydroxypropylcellulose) (HPC)
[3] = dose: 400.0 mg/kg/injection, schedule: Q04DX003 (ip), vehicle: Klucel (hydroxypropylcellulose) (HPC)
[4] = dose: 50.0 mg/kg/injection, schedule: Q01DX005 (ip), vehicle: saline with Tween-80
[5] = dose: 100.0 mg/kg/injection, schedule: Q01DX005 (ip), vehicle: saline with Tween-80
[6] = dose: 200.0 mg/kg/injection, schedule: Q01DX005 (ip), vehicle: saline with Tween-80
[7] = dose: 50.0 mg/kg/injection, schedule: Q01DX009 (ip), vehicle: Klucel (hydroxypropylcellulose) (HPC)
[8] = dose: 100.0 mg/kg/injection, schedule: Q01DX009 (ip), vehicle: Klucel (hydroxypropylcellulose) (HPC)
[9] = dose: 50.0 mg/kg/injection, schedule: Q01DX009 (ip), vehicle: saline
[10] = dose: 100.0 mg/kg/injection, schedule: Q01DX009 (ip), vehicle: saline
[11] = dose: 200.0 mg/kg/injection, schedule: Q01DX009 (ip), vehicle: saline
[12] = dose: 50.0 mg/kg/injection, schedule: Q01DX009 (ip), vehicle: saline with Tween-80
[13] = dose: 100.0 mg/kg/injection, schedule: Q01DX009 (ip), vehicle: saline with Tween-80
[14] = dose: 200.0 mg/kg/injection, schedule: Q01DX009 (ip), vehicle: saline with Tween-80
[15] = dose: 60.0 mg/kg/injection, schedule: Q01DX005 (ip), vehicle: saline with Tween-80
[16] = dose: 120.0 mg/kg/injection, schedule: Q01DX005 (ip), vehicle: saline with Tween-80
[17] = dose: 240.0 mg/kg/injection, schedule: Q01DX005 (ip), vehicle: saline with Tween-80

Structure (SMILES): CC1(C)OC(CP(=O)(c2ccccc2)c2ccccc2)C(CP(=O)(c2ccccc2)c2ccccc2)O1 (stereo not drawn)
- T/C (dose: 50.0 mg/kg/injection, schedule: Q01DX005 (ip), vehicle: Klucel (hydroxypropylcellulose) (HPC)): 97 % of control
- T/C (dose: 100.0 mg/kg/injection, schedule: Q01DX005 (ip), vehicle: Klucel (hydroxypropylcellulose) (HPC)): 97 % of control
- T/C (dose: 200.0 mg/kg/injection, schedule: Q01DX005 (ip), vehicle: Klucel (hydroxypropylcellulose) (HPC)): 94 % of control

Structure (SMILES): CCCCCCC(=O)N1SC(NC(=O)OC)=Nc2ccccc21
- T/C (dose: 50.0 mg/kg/injection, schedule: Q01DX005 (ip), vehicle: acetone): 108 % of control
- T/C (dose: 100.0 mg/kg/injection, schedule: Q01DX005 (ip), vehicle: acetone): 102 % of control
- T/C (dose: 200.0 mg/kg/injection, schedule: Q01DX005 (ip), vehicle: acetone): 102 % of control

Structure (SMILES): COSc1ccc([N+](=O)[O-])cc1
- T/C [1]: 108 % of control
- T/C [2]: 102 % of control
- T/C [3]: 99 % of control

Structure (SMILES): Cn1cc(Cl)c2ccccc2c1=O
- T/C [4]: 101 % of control
- T/C [5]: 99 % of control
- T/C [6]: 100 % of control

Structure (SMILES): COc1ccc(C2OC(=O)C(=O)C2=O)cc1OC (stereo not drawn)
- T/C (dose: 60.0 mg/kg/injection, schedule: Q01DX005 (ip), vehicle: Klucel (hydroxypropylcellulose) (HPC)): 100 % of control
- T/C (dose: 120.0 mg/kg/injection, schedule: Q01DX005 (ip), vehicle: Klucel (hydroxypropylcellulose) (HPC)): 107 % of control
- T/C (dose: 240.0 mg/kg/injection, schedule: Q01DX005 (ip), vehicle: Klucel (hydroxypropylcellulose) (HPC)): 105 % of control

Structure (SMILES): CN(C)c1cc(N(C)C)c2cc(Cl)ccc2n1
- T/C [7]: 106 % of control
- T/C [8]: 100 % of control

Structure (SMILES): CC1(C)SC2C(NC(=O)C(N)c3ccc(O)cc3)C(=O)N2C1C(=O)O (stereo not drawn)
- T/C [9]: 113 % of control
- T/C [10]: 116 % of control
- T/C [11]: 113 % of control

Structure (SMILES): Nc1nnnn1-c1ccccc1Cl
- T/C [1]: 105 % of control
- T/C [2]: 100 % of control
- T/C [3]: 101 % of control

Structure (SMILES): CC(=O)N(O)c1ccc(S(N)(=O)=O)cc1
- T/C [12]: 113 % of control
- T/C [13]: 100 % of control
- T/C [14]: 98 % of control

Structure (SMILES): CCOC(=O)N1c2ccccc2C(c2ccccc2)=NC1(C)C#N (stereo not drawn)
- T/C [4]: 97 % of control
- T/C [5]: 99 % of control
- T/C [6]: 99 % of control

Structure (SMILES): C=C1C(=O)OC2C1CCC1(C)CCCC(=C)C21 (stereo not drawn)
- T/C (dose: 2.5 mg/kg/injection, schedule: Q01DX009 (ip), vehicle: Klucel (hydroxypropylcellulose) (HPC)): 93 % of control
- T/C (dose: 5.0 mg/kg/injection, schedule: Q01DX009 (ip), vehicle: Klucel (hydroxypropylcellulose) (HPC)): 96 % of control
- T/C (dose: 10.0 mg/kg/injection, schedule: Q01DX009 (ip), vehicle: Klucel (hydroxypropylcellulose) (HPC)): 92 % of control
- T/C (dose: 20.0 mg/kg/injection, schedule: Q01DX009 (ip), vehicle: Klucel (hydroxypropylcellulose) (HPC)): 96 % of control

Structure (SMILES): C[n+]1c(-c2ccc(/C=N/NC(=O)C(=O)N/N=C/c3ccc(-c4cn5ccccc5[n+]4C)cc3)cc2)cn2ccccc21
- T/C (dose: 7.5 mg/kg/injection, schedule: Q01DX005 (ip), vehicle: saline): 109 % of control
- T/C (dose: 15.0 mg/kg/injection, schedule: Q01DX005 (ip), vehicle: saline): 119 % of control

Structure (SMILES): Cc1nn(C(N)=S)c(C)c1N=Nc1cccc(Cl)c1Cl
- T/C (dose: 100.0 mg/kg/injection, schedule: Q04DX002 (ip), vehicle: Klucel (hydroxypropylcellulose) (HPC)): 100 % of control
- T/C (dose: 200.0 mg/kg/injection, schedule: Q04DX002 (ip), vehicle: Klucel (hydroxypropylcellulose) (HPC)): 96 % of control
- T/C (dose: 400.0 mg/kg/injection, schedule: Q04DX002 (ip), vehicle: Klucel (hydroxypropylcellulose) (HPC)): 92 % of control

Structure (SMILES): O=[N+]([O-])c1ccc(-c2csc(COc3ccccc3)n2)cc1
- T/C (dose: 50.0 mg/kg/injection, schedule: Q01DX009 (ip), vehicle: gum acacia): 98 % of control
- T/C (dose: 100.0 mg/kg/injection, schedule: Q01DX009 (ip), vehicle: gum acacia): 101 % of control
- T/C (dose: 200.0 mg/kg/injection, schedule: Q01DX009 (ip), vehicle: gum acacia): 96 % of control

Structure (SMILES): CCOC(=O)N1C=C(C(=O)OC)C(c2ccccc2)C(C(=O)OC)=C1
- T/C [4]: 95 % of control
- T/C [5]: 106 % of control
- T/C [6]: 97 % of control

Structure (SMILES): Nc1ccc(C(=O)c2ccccc2)cc1
- T/C (dose: 25.0 mg/kg/injection, schedule: Q01DX009 (ip), vehicle: saline with Tween-80): 93 % of control
- T/C [12]: 100 % of control
- T/C [13]: 102 % of control

Structure (SMILES): Cn1c(=O)c2nc(-c3ccc(Cl)cc3)oc2n(C)c1=O
- T/C [9]: 104 % of control
- T/C [10]: 100 % of control
- T/C [11]: 102 % of control

Structure (SMILES): C(=NCCN=Cc1ccccc1)c1ccccc1
- T/C [14]: 95 % of control
- T/C (dose: 400.0 mg/kg/injection, schedule: Q01DX009 (ip), vehicle: saline with Tween-80): 87 % of control

Structure (SMILES): O=C(/C=C/c1ccccc1)c1cc2c(cc1O)OCO2
- T/C [15]: 103 % of control
- T/C [16]: 107 % of control
- T/C [17]: 100 % of control

Structure (SMILES): O=C(CSc1nnc(CSc2ccc(Cl)cc2)n1-c1ccccc1)NC(=O)Nc1ccccc1
- T/C (dose: 7.5 mg/kg/injection, schedule: Q01DX005 (ip), vehicle: saline with Tween-80): 94 % of control
- T/C (dose: 15.0 mg/kg/injection, schedule: Q01DX005 (ip), vehicle: saline with Tween-80): 90 % of control
- T/C (dose: 30.0 mg/kg/injection, schedule: Q01DX005 (ip), vehicle: saline with Tween-80): 86 % of control
- T/C [15]: 88 % of control
- T/C [17]: 89 % of control (2×) and 96 % of control

Structure (SMILES): FC(F)(F)c1ccc2c(c1)N(CCCCl)c1ccccc1S2
- T/C (dose: 50.0 mg/kg/injection, schedule: Q04DX003 (ip), vehicle: saline): 94 % of control
- T/C (dose: 100.0 mg/kg/injection, schedule: Q04DX003 (ip), vehicle: saline): 99 % of control
- T/C (dose: 200.0 mg/kg/injection, schedule: Q04DX003 (ip), vehicle: saline): 104 % of control
- T/C (dose: 400.0 mg/kg/injection, schedule: Q04DX003 (ip), vehicle: saline): 98 % of control

Structure (SMILES): C=C(CN(C)C)C(=O)c1ccc(OC2OC(COC(C)=O)C(OC(C)=O)C(OC(C)=O)C2OC(C)=O)cc1 (stereo not drawn)
- T/C (dose: 6.25 mg/kg/injection, schedule: Q01DX005 (ip), vehicle: saline with Tween-80): 106 % of control
- T/C (dose: 12.5 mg/kg/injection, schedule: Q01DX005 (ip), vehicle: saline with Tween-80): 109 % of control

Structure (SMILES): OC(CNc1ccc(CSc2ccccc2)cc1)c1ccccc1 (stereo not drawn)
- T/C (dose: 50.0 mg/kg/injection, schedule: Q01DX009 (ip), vehicle: saline + Tween-80 + alcohol): 101 % of control and 104 % of control
- T/C (dose: 100.0 mg/kg/injection, schedule: Q01DX009 (ip), vehicle: saline + Tween-80 + alcohol): 99 % of control
- T/C (dose: 200.0 mg/kg/injection, schedule: Q01DX009 (ip), vehicle: saline + Tween-80 + alcohol): 99 % of control and 102 % of control
- T/C (dose: 400.0 mg/kg/injection, schedule: Q01DX009 (ip), vehicle: saline + Tween-80 + alcohol): 104 % of control and 90 % of control

Structure (SMILES): O=C1c2ccccc2C(=O)c2c(NCCNCCO)ccc(NCCO)c21
- T/C (dose: 5.0 mg/kg/injection, schedule: Q04DX002 (ip), vehicle: saline): 115 % of control

Structure (SMILES): CC(C)(O)c1ccccc1S(=O)c1ccccc1 (stereo not drawn)
- T/C (dose: 100.0 mg/kg/injection, schedule: Q01DX001 (ip), vehicle: Klucel (hydroxypropylcellulose) (HPC)): 101 % of control
- T/C (dose: 200.0 mg/kg/injection, schedule: Q01DX001 (ip), vehicle: Klucel (hydroxypropylcellulose) (HPC)): 100 % of control
- T/C (dose: 400.0 mg/kg/injection, schedule: Q01DX001 (ip), vehicle: Klucel (hydroxypropylcellulose) (HPC)): 92 % of control

Structure (SMILES): O=S(=O)(Cc1ccccc1)/N=C\c1ccc(Cl)cc1
- T/C [7]: 95 % of control
- T/C [8]: 103 % of control
- T/C (dose: 200.0 mg/kg/injection, schedule: Q01DX009 (ip), vehicle: Klucel (hydroxypropylcellulose) (HPC)): 104 % of control

Structure (SMILES): CCOc1cc(=O)cc2n(-c3cc(OCC)c(O)c(OCC)c3)c3ccccc3nc1-2
- T/C (dose: 50.0 mg/kg/injection, schedule: Q01DX009 (ip), vehicle: suspension in saline): 100 % of control
- T/C (dose: 100.0 mg/kg/injection, schedule: Q01DX009 (ip), vehicle: suspension in saline): 101 % of control
- T/C (dose: 200.0 mg/kg/injection, schedule: Q01DX009 (ip), vehicle: suspension in saline): 97 % of control

Structure (SMILES): O=C(c1ccccc1)c1ccccc1NCC(O)COc1ccc(Cl)cc1C(=O)c1ccccc1 (stereo not drawn)
- T/C [15]: 91 % of control and 96 % of control
- T/C [16]: 95 % of control
- T/C [17]: 88 % of control and 90 % of control
